Experimental findings from paper PMC12040169 (PLOS Biology, 2025) are described below.

A word on the viability: it is a read-out of living cells in per cent, often relative to untreated cells.

The first series in a line: in vitro. The conditions noted are these: human, hela cells, % viability.
Take `CC(C)(C)OC(=O)N(CCCN1CCN(c2ccc(F)cc2)CC1)c1ccccc1` [CBK016723]: the viability at 28.5 h, 10 µM was 89.2%. As for `CCN(CC)CCOC1CCc2ccccc2CC1` [CBK016730C], the viability at 28.5 h, 10 µM is 96.7%. Still for that read-out and setting: then `O=c1[nH]c2ccncc2c2ccccc12` [CBK016740C], with 92%; and `C[C@@H]1CN(C(=O)c2cc3c(C(=O)OC(C)(C)C)ncn3c3ccc(Cl)cc23)C[C@H](C)N1` [CBK016744], with 115%. Take `CSc1[nH]nc(N)c1-c1ccc([N+](=O)[O-])cc1` [CBK016751]: the viability at 28.5 h, 10 µM amounted to 88%.

As for `CC(C)(C)c1cc(N)c(C(N)=O)s1` [CBK016752], the viability at 28.5 h, 10 µM was 91.3%. As to `c1ncn(C2CCCCC2)c1C1CCCCC1` [CBK016758], the viability at 28.5 h, 10 µM turned out to be 101%. On the same count and under the same terms, then `CCC(Cc1ccccc1C)c1cc(O)c(C(c2ccccc2)C2CC2)c(=O)o1` (centres unmarked) [CBK016783], with 98.3%.

As to `CC(C)Nc1cccnc1N(C)C1CCN(C(=O)c2cc(Br)c[nH]2)CC1` [CBK016797], the viability at 28.5 h, 10 µM turned out to be 105%.

For the compound `c1nc(N2CCOCC2)c2cn[nH]c2n1` [CBK016811], the viability at 28.5 h, 10 µM stood at 86.3%. For `CCCCC(Sc1nc(N)cc(Cl)n1)c1cc(C)ccn1` (centres unmarked) [CBK016827], the viability at 28.5 h, 10 µM came to 106%. For the compound `CC(C)(C)OC(=O)N1CCN(CCOc2ccc(NC(=O)OCc3ccccc3)cc2F)CC1` [CBK016854], the viability at 28.5 h, 10 µM came to 108%. Take `CC(C)CNc1n[nH]c(=S)s1` [CBK016865]: the viability at 28.5 h, 10 µM turned out to be 95.9%. On the same count and under the same terms, then `O=C1O[C@@H](CO)CN1c1ccc(N(Cc2ccccc2)Cc2ccccc2)c(F)c1` [CBK016873], with 103%. Turning to `Cc1ccc(Cl)cc1NC(=O)OCCN(C)C` [CBK016906], the viability at 28.5 h, 10 µM was 98.3%. On the same count and under the same terms, under `NS(=O)(=O)c1ccccc1NC(=O)NC1CCCCC1` [CBK016919] stands 93.4%; under `FC(F)(F)c1cc(NCCC2CCCCN2)cc(C(F)(F)F)c1` (centres unmarked) [CBK016963], 88.6%; under `O=C(Nc1ccccc1)Nc1ccc([N+](=O)[O-])cc1` [CBK016975], 99.6%. For the compound `CSc1[nH]nc(-c2ccc(C(C)(C)C)cc2)c1C#N` [CBK016999], the viability at 28.5 h, 10 µM was determined as 108%.

For `CCCSc1scc2c1-c1n[nH]cc1CC2` [CBK017006], the viability at 28.5 h, 10 µM is 99.3%.

Take `O=S(=O)(Nc1cccc2nsnc12)c1cccs1` [CBK017018]: the viability at 28.5 h, 10 µM is 75.6%. With `NCCSc1cc(C(F)(F)F)nc2ccccc12` [CBK017035], the viability at 28.5 h, 10 µM was found to be 81.9%.

As to `O=C(O)CC/C(=N\Nc1ccc([N+](=O)[O-])cc1)c1ccc(F)cc1` [CBK017075], the viability at 28.5 h, 10 µM was 110%. For `CC(C)Nc1ncnc2scc(-c3cccs3)c12` [CBK017085], the viability at 28.5 h, 10 µM came out at 85.9%.

Turning to `CCN(CC)CCCC(C)Nc1ccnc2cc(Cl)ccc12` (centres unmarked) [CBK017143], the viability at 28.5 h, 10 µM is 85.6%. On to `Nc1ccc2nc(-c3ccccn3)[nH]c2c1` [CBK017167], for which the viability at 28.5 h, 10 µM was found to be 100%. Still for that read-out and setting: under `CC(C)c1c(SCCN)[nH]c2ccccc12` [CBK017265C] stands 96%. On the same count and under the same terms, under `NC(=O)c1cc(C(=O)c2ccccc2F)c[nH]1` [CBK017284] stands 112%; under `CS(=O)(=O)c1nc(-c2ccccc2)ns1` [CBK017338], 90.6%; under `CC1=NN(c2cccc(S(=O)(=O)O)c2C(=O)Nc2ccccc2)C(=O)C1` [CBK017343], 98.4%.

On to `Nc1ncnc(Nc2cccc(C(F)(F)F)c2)n1` [CBK017403], for which the viability at 28.5 h, 10 µM turned out to be 82.4%. On the same count and under the same terms, under `CC(C)(C)NC(=O)N/N=C/c1[nH]ncc1Br` [CBK017439] stands 96%; under `O=S(=O)(Nc1cccc(Cl)c1Cl)c1ccc(Cl)c(Cl)c1` [CBK017446], 79.2%; under `N#Cc1sc(NC(=O)c2cccc(Br)c2)nc1Cl` [CBK017468], 45.4%. Still for that read-out and setting: under `CCCSc1cc(=O)oc2ccccc12` [CBK017493] stands 87.3%; under `Nc1ccc2c(O)c(C(=O)NCc3ccc(Cl)cc3)c(=O)[nH]c2c1` [CBK017557], 91.4%; under `C[S+]([O-])CCn1c2ccccc2c2c(N3CCCC3)nc(N3CCCC3)nc21` (centres unmarked) [CBK017586], 91.9%.

On to `O=C(NCc1ccc(Cl)cc1)c1c(O)c2cc(NS(=O)(=O)c3ccccc3)ccc2[nH]c1=O` [CBK017589], for which the viability at 28.5 h, 10 µM worked out at 94.4%. Same read-out and setting: under `CC(C)(C)c1ccc2c(c1)C(CCCCN1CCCC1)(c1ccccc1)C(=O)O2` (centres unmarked) [CBK017654C] stands 102%.

Regarding `NC(=O)c1ccc2[nH]c(-c3cscn3)nc2c1` [CBK017800], the viability at 28.5 h, 10 µM came to 86%. Still for that read-out and setting: then `COc1ccc2c(c1Br)C=C(n1ccnc1)CC2` [CBK017808], with 76.9%; and `Oc1cccc2ccc(-n3ccnc3)nc12` [CBK017812], with 79.3%. The same measure, in the same setting: then `Cc1ccc(N)c(C(=O)CCC(=O)O)c1` [CBK017815C], with 92.1%.

Take `COc1ccc2[nH]cc(/C=C3\C(=O)Nc4ncccc43)c2c1` [CBK017826]: the viability at 28.5 h, 10 µM was found to be 88.3%. The same measure, in the same setting: then `C[C@@H]1CC(=O)CCC1NC(=O)c1ccccc1` (some centres unmarked) [CBK017832], with 88.4%; and `CN(C)c1ccc(C(=O)N2CC(=O)Nc3ccccc32)cc1` [CBK017839], with 89.2%; and `COC(=O)C[C@@H](C)NC(=O)[C@](OC)(c1ccccc1)C(F)(F)F` [CBK017864], with 98.6%. On to `CCCN(CCC)CCc1cccc2c1CCN2C(=O)c1cc2ccccc2s1` [CBK017871C], for which the viability at 28.5 h, 10 µM amounted to 93.2%. On to `COC(=O)c1ccc2cccnc2c1O` [CBK017876], for which the viability at 28.5 h, 10 µM was 90.9%. The same measure, in the same setting: under `O=C(Nc1ccc(Cl)cc1)N1CCN(CCCCc2ccc(F)cc2)CC1` [CBK017951C] stands 111%. `NC(=O)c1ccc(Nc2cc(N)ncn2)cc1` [CBK017969]: the viability at 28.5 h, 10 µM is 94.1%. The same measure, in the same setting: under `Cc1cc(C)c2nc(O)nc(O)c2c1` [CBK017986] stands 94.4%. As for `CC(=S)NCC1CC(c2ccc(N3CC[S+]([O-])CC3)c(F)c2)=NO1` (centres unmarked) [CBK017992], the viability at 28.5 h, 10 µM came to 110%. Still for that read-out and setting: then `O=C(NCc1ccc(Cl)cc1)c1cnc2ccc(CN3CCSCC3)cc2c1O` [CBK018010], with 97.9%.

In the case of `Fc1cc2c3c(c1)c1c(n3CCO2)CCNCC1` [CBK018018C], the viability at 28.5 h, 10 µM stood at 102%. Consider `Cn1cnnc1SCc1nc(N)nc(Nc2ccccc2)n1` [CBK018022], for which the viability at 28.5 h, 10 µM was determined as 106%. For the compound `CCN(CC)CCNC(=O)c1c(C)oc2cc(Br)c(OC)cc12` [CBK018064], the viability at 28.5 h, 10 µM amounted to 87.3%. On to `CC(C)(C)C(=O)Nc1cccc(OC(F)(F)C(F)Cl)c1` (centres unmarked) [CBK018091], for which the viability at 28.5 h, 10 µM came out at 95%. Same read-out and setting: under `Cc1nc2ccccc2[nH]/c1=N/O` [CBK018103] stands 104%; under `CCOC(=O)c1nnc(-c2cccs2)nc1NC1CCCCC1` [CBK018110], 86.8%; under `CC(C)Oc1cc(NC(=O)CS(=O)(=O)CC(=O)N(C)C)c(Cl)cc1Cl` [CBK018112], 113%.

Consider `CC12CCC(C(=O)Nc3ccccc3)(OC1=O)C2(C)C` (centres unmarked) [CBK018129], for which the viability at 28.5 h, 10 µM came out at 96.4%. The same measure, in the same setting: then `COCc1cc(C)nc2sc(C(N)=O)c(N)c12` [CBK018149], with 93%; and `O=c1[nH]c2cc3nn[nH]c3cc2[nH]1` [CBK018154], with 99.9%. Take `Sc1nnc2sc3ccccc3n12` [CBK018156]: the viability at 28.5 h, 10 µM is 103%. In the case of `Cc1ccc(-c2ccc(/C=C/c3cc(C(F)(F)F)nc(=O)[nH]3)o2)cc1Cl` [CBK018169], the viability at 28.5 h, 10 µM stood at 103%. Same read-out and setting: under `COc1ccc2cc(/C=N/NC(=O)CN3CCCCC3)c(Cl)nc2c1` [CBK018181] stands 95.3%; under `Cc1cc(C)c2nn[nH]c2c1CN1CCCC1` [CBK018196], 100%. On the same count and under the same terms, under `O=C(NCCCO)c1c(O)c2ccccc2[nH]c1=O` [CBK018215] stands 71.7%. Turning to `Cc1sc2nc(NCCO)nc(O)c2c1C` [CBK018257], the viability at 28.5 h, 10 µM came out at 86.9%.

On to `CCOC(=O)NC(=S)NCCCn1ccnc1` [CBK018272], for which the viability at 28.5 h, 10 µM was found to be 112%. The same measure, in the same setting: then `CSc1nc(N)c2c3c(sc2n1)CN(C)CC3` [CBK018303], with 122%; and `O=C(OCc1nc2cc3ccccc3cc2[nH]1)C1CCCCC1` [CBK018307], with 94%. Turning to `Cc1c2cn[nH]c(=O)c2c(C)n1-c1ccccc1` [CBK018349], the viability at 28.5 h, 10 µM came out at 98.3%. Same read-out and setting: under `CCOC(=O)c1ccc(NC(=S)NCCN(CC)CC)cc1` [CBK018358] stands 104%. On to `Cc1cc2c3c(c1)c1c(n3CCC2)CCNCC1` [CBK018380C], for which the viability at 28.5 h, 10 µM was 96.9%. Turning to `Cc1ncccc1Oc1ccc(NC(=O)N2CCc3ccccc3CC2)cn1` [CBK018383], the viability at 28.5 h, 10 µM came to 96.6%.

In the case of `COc1ccccc1N/C(=N\OCc1ccc(Cl)cc1Cl)c1nonc1N` [CBK018391], the viability at 28.5 h, 10 µM amounted to 91%. With `O=S1(=O)C=C(c2ccc(Cl)cc2)S(=O)(=O)CC1` [CBK018403], the viability at 28.5 h, 10 µM worked out at 86.3%. As for `CCOC(=O)c1cnc2ccc(C(CCOCc3ccccc3)OCc3ccccc3)cc2c1O` (centres unmarked) [CBK018405], the viability at 28.5 h, 10 µM was 93.8%. In the case of `Fc1cc2c3c(c1)c1c(n3CCC2)CCNCC1` [CBK018406C], the viability at 28.5 h, 10 µM amounted to 105%. Same read-out and setting: then `NC1=C(N)OC(Oc2ccccc2C(F)(F)F)=NN1` [CBK018424], with 57.2%; and `Clc1ccc(-c2cc(CN3CCCCC3)no2)cc1Cl` [CBK018435], with 102%.

`O=S(=O)(c1ccccc1)c1ccc(N2CCNCC2)cc1` [CBK018452]: the viability at 28.5 h, 10 µM amounted to 97.8%.

Staying with this series, now noted: human, hela cells, % viability, bulk resorufin, single well.
As for `O=C(NO)Nc1ccc(Cl)c(Cl)c1` [CBK016929], the viability at 28.5 h, 10 µM amounted to 96.3%. `O=C1NC(=O)C(=Cc2ccc([N+](=O)[O-])o2)C(=O)N1` [CBK017848]: the viability at 28.5 h, 10 µM came out at 106%.
